Results as given in patent US8093393B2, “Cationic ceramides, and analogs thereof, and their use for preventing or treating cancer” (MUSC Foundation for Research Development, priority 2004, dated 2012).
Read-outs that look alike come from different tables or passages of the source.

What was measured:
[1] = test system: UM-SCC-1 cells; assay: MTT cell survival assay; assay type: cell-based, human; details: UM-SCC-1, 48 hr; read-out: IC50, growth
Protocol: Cell lines and culture conditions. […] Cells were grown in DMEM containing 10% FCS and 1% penicillin/streptomycin at 37° C. in 5% CO2. The Wi-38 human lung fibroblasts were obtained from American Type Culture Collection, and were grown in DMEM as described above. Adult human epidermal keratinocytes were purchased from Cascade Biologics, and were maintained in EpiLife medium with growth supplements as described by the manufacturer.
MTT cell survival assay and isobologram studies. […] Triplicate wells were used for each treatment. The final concentration of DMSO (a solvent for conventional ceramides, GMZ and DOX) in the growth medium was less than 0.1% (v/v) which has no effect on cell growth and survival. Pyridinium ceramides were dissolved in sterile water or growth medium. In short, after cells (5-10×10^3/well) were seeded in 96-well-plates for 24 hr, they were treated with increasing concentrations of ceramide analogs for an additional 48 or 96 hr. For combination treatments, ceramides and chemotherapeutic agents (gemcitabine (GMZ) or doxorubicin (DOX)) were added to the growth medium simultaneously during treatment. Isobologram plots were then constructed using IC50 values of the two agents alone or in combination obtained from MTT assays. […]

[2] = BALB/c mice

## CCCCCCCCCCCCC/C=C/[C@H](O)[C@H](CO)NC(=O)CCCCC[n+]1ccccc1.[Br-] [LCL124, L-threo-2-N-[6′-(1″-Pyridinium)-hexanoyl]-sphingosine Bromide]
[1]
  IC50: 1 to 2 µM
[2]; 1-4 days
  doses without any detectable toxicity: 10 to 80 mg/kg
[2]; IP
  maximum tolerated dose (MTD): 80 mg/kg
[2]; IP, 24 hr
  toxic concentrations (severe abdominal bloating, intestinal malfunction): ≥ 100 mg/kg
[2]; IP, after about 6 hr
  single dose resulting in toxicity (abdominal bloating, intestinal malfunction): 120 to 150 mg/mL
Absence of GMZ
  level in the intestines: about 120 pmol/mg protein
  level in the liver: ~100 pmol/mg protein
Absence or presence of GMZ
  fold higher level in tumors than in intestines or liver: 3-6 fold
Combined with GMZ
  level in the tumors: 3,100 pmol/mg
mouse, in vivo
  increase of level in the tumors when combined with GMZ: about 40%
Presence of GMZ
  level in the intestines: 1,000 pmol/mg protein
  level in the liver: 300 pmol/mg protein
Single agent
  accumulation in the tumor site: about 2,200 pmol/mg
